# Data: paper PMC4536076, “Chemical Library Screening and Structure-Function Relationship Studies Identify Bisacodyl as a Potent and Selective Cytotoxic Agent Towards Quiescent Human Glioblastoma Tumor Stem-Like Cells” (PLoS ONE, 2015)
# Where two headings read alike, the source gives them in different places.
# Columns and labels:
# proliferating TG1 GSCs [1] = experiment: ATP-Glo dose-response, proliferating TG1 GSCs; type: cell-based, human; details: 24 h, 24 h
# Procedure: (§1) The EC50 value was determined for each compound by fitting the data points according to the following equation: y=Smax+Smin*(x*1/EC50)^n/1+(x*1/EC50)^n where y represents the expected response, x is the chemical compound concentration, S max and S min are the maximum and minimum responses recorded, respectively and n is the Hill coefficient. Curve fitting was performed using Microsoft Excel Solver component.
# (§2) Proliferating or quiescent TG1 cells were seeded in 50 μL of their respective media (30 000 and 40 000 viable cells/well, respectively) into 96-well opaque bottom plates (Greiner, Courtaboeuf, France). Compound treatment was performed by adding 50 μL of compound solutions (in the presence of 2% DMSO in culture medium). […] All compounds were tested in triplicate in each experiment. Independent experiments were performed at least twice for almost all of the compounds.
# quiescent TG1 GSCs [2] = experiment: ATP-Glo dose-response, quiescent TG1 GSCs; type: cell-based, human; details: for EC50 / Quiescent TG1 GSCs EC50: 24 h; for fold increase in EC50 (activity decrease) compared to DDPM (compound 2): quiescent TG1 GSCs
# Procedure: as §1, §2
# proliferating TG16 GSCs = experiment: ATP-Glo dose-response, proliferating TG16 GSCs; type: cell-based, human; details: Homo sapiens; ATP Glo readout, 24 h treatment; read-out: P TG16 GSCs EC50
# Procedure: as §1
# (§3) Similar dose response curves were performed using GSCs isolated from GBM of two other patients (TG16 and OB1 GSCs) grown under proliferating and quiescent conditions.
# quiescent TG16 GSCs = experiment: ATP-Glo dose-response, quiescent TG16 GSCs; type: cell-based, human; details: Homo sapiens; ATP Glo readout, 24 h treatment; read-out: Q TG16 GSCs EC50
# Procedure: as §1, §3
# proliferating OB1 GSCs = experiment: ATP-Glo dose-response, proliferating OB1 GSCs; type: cell-based; details: Homo sapiens; ATP Glo readout, 24 h treatment; read-out: P OB1 GSCs EC50
# Procedure: as §1, §3
# quiescent OB1 GSCs = experiment: ATP-Glo dose-response, quiescent OB1 GSCs; type: cell-based, human; details: Homo sapiens; ATP Glo readout, 24 h treatment; read-out: Q OB1 GSCs EC50
# Procedure: as §1, §3
# [3] = tested on: primary astrocytes (HA cells); experiment: ATP-Glo dose-response, primary astrocytes; type: cell-based, human; details: Homo sapiens, Astrocyte; ATP Glo readout, 24 h treatment
# [4] = tested on: fetal neural stem cells (f-NSC); experiment: ATP-Glo dose-response, fetal neural stem cells; type: cell-based; details: Homo sapiens, Neural stem cell; ATP Glo readout, 24 h treatment
# HEK 293 cells = experiment: ATP-Glo dose-response, HEK 293 cells; type: cell-based, human; details: Homo sapiens, HEK293; ATP Glo readout, 24 h treatment
# Procedure: as §1, with “component. […]” for “component.”
# quiescent TG1 GSCs [5] = details: primary screen, 50 μM, 24 h
# In short: (§4)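 Cells seeded at 30 000 (proliferating) or 40 000 (quiescent) viable cells/well and treated with compound at 50 μM final, 1% DMSO, single test; hits retested in duplicate at 50 and 5 μM. ATP measured by luminescence, as percent of the mean signal of DMSO control wells.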
# proliferating TG1 GSCs [6] = details: primary screen, 50 μM, 24 h
# In short: as §4
# [7] = Homo sapiens, SAR study, ATP-Glo cell survival assay, triplicate, read-out: Proliferating TG1 GSCs EC50
# [8] = Homo sapiens, SAR study, ATP-Glo cell survival assay, triplicate, read-out: Quiescent TG1 GSCs EC50
# [9] = SAR study, ATP-Glo cell survival assay, triplicate
# [10] = Homo sapiens, ATP Glo readout, 24 h treatment, n = 3, read-out: P TG1 GSCs EC50
# [11] = Homo sapiens, ATP Glo readout, 24 h treatment, n = 3, read-out: Q TG1 GSCs EC50
compound,measurement,setting,value
"Oc1ccc(C(c2ccc(Cl)cc2)c2ccccn2)cc1 (stereo not drawn) [Compound 10, 4-hydroxyphenyl-4-chlorophenyl-pyridin-2-yl-methane]",EC50,proliferating TG1 GSCs [1]; [7],> 100 µM
same,EC50,quiescent TG1 GSCs [2]; [8],4 ± 1.4 µM
"CC(C)(C)OC(=O)NCCCCCCNC(=O)CCCC#Cc1cccc(C(c2ccc(O)cc2)c2ccc(O)cc2)n1 [Compound 19, tert-butyl(6-(6-(6-(bis(4-hydroxyphenyl)methyl)pyridin-2-yl)hex-5-ynamido)hexyl)carbamate]",Proliferating TG1 GSCs EC50,proliferating TG1 GSCs [1]; [9],No activity
same,EC50,quiescent TG1 GSCs [2]; [8],3.84 µM
"O=c1cc(-c2ccc(O)c(O)c2)oc2cc(O)cc(O)c12 [Luteolin, 3',4',5,7-tetrahydroxy-flavone]",EC50,proliferating TG1 GSCs [1]; [10],> 100 µM
same,EC50,quiescent TG1 GSCs [2]; [11],20 ± 2 µM
same,EC50,proliferating TG16 GSCs,> 100 µM
same,EC50,quiescent TG16 GSCs,34 ± 4 µM
same,EC50,proliferating OB1 GSCs,> 100 µM
same,EC50,quiescent OB1 GSCs,18 ± 4 µM
same,EC50,[3],> 100 µM
same,EC50,[4],70 ± 36 µM
same,EC50,HEK 293 cells,> 100 µM
same,Activity on quiescent TG1 GSCs (hit compounds reducing ATP levels),quiescent TG1 GSCs [5],yes
"COc1ccc(C(c2ccc(OC)cc2)c2ccccn2)cc1 [Compound 4, 4,4'-dimethoxydiphenyl(pyridin-2-yl)methane]",Proliferating TG1 GSCs EC50,proliferating TG1 GSCs [1]; [9],No activity
same,Quiescent TG1 GSCs EC50,quiescent TG1 GSCs [2]; [9],No activity
C#C[C@]1(O)CC[C@H]2[C@@H]3CCC4=CCCC[C@@H]4[C@H]3CC[C@@]21C [Lynestrenol],EC50,proliferating TG1 GSCs [1]; [10],36 ± 2 µM
same,EC50,quiescent TG1 GSCs [2]; [11],43 ± 8 µM
same,EC50,proliferating TG16 GSCs,32 ± 2 µM
same,EC50,quiescent TG16 GSCs,28 ± 6 µM
same,EC50,proliferating OB1 GSCs,26 ± 5 µM
same,EC50,quiescent OB1 GSCs,56 ± 10 µM
same,EC50,[3],20 ± 1 µM
same,EC50,[4],23 ± 5 µM
same,EC50,HEK 293 cells,57 ± 8 µM
same,Activity on proliferating TG1 GSCs (hit compounds reducing ATP levels),proliferating TG1 GSCs [6],yes
"Oc1ccc(Cc2ccc(O)cc2)cc1 [Compound 13, Bis(4-hydroxyphenyl)methane]",Proliferating TG1 GSCs EC50,proliferating TG1 GSCs [1]; [9],No activity
same,Quiescent TG1 GSCs EC50,quiescent TG1 GSCs [2]; [9],No activity
"Oc1ccc(C(c2ccccc2)c2ccc(O)cc2)cc1 [Compound 12, 4,4’-dihydroxyphenyl-phenyl-methane]",EC50,proliferating TG1 GSCs [1]; [7],60.8 ± 10.4 µM
same,EC50,quiescent TG1 GSCs [2]; [8],14.2 ± 8.8 µM
same,fold increase in EC50 (activity decrease) compared to DDPM (compound 2),quiescent TG1 GSCs [2],at least 10 fold
C=C(CC)C(=O)c1ccc(OCC(=O)O)c(Cl)c1Cl [Ethacrynic acid],EC50,proliferating TG1 GSCs [1]; [10],81 ± 11 µM
same,EC50,quiescent TG1 GSCs [2]; [11],41 ± 11 µM
same,EC50,proliferating TG16 GSCs,> 100 µM
same,EC50,quiescent TG16 GSCs,12 ± 2 µM
same,EC50,proliferating OB1 GSCs,60 ± 20 µM
same,EC50,quiescent OB1 GSCs,24 ± 3 µM
same,EC50,[3],> 100 µM
same,EC50,[4],21 ± 11 µM
same,EC50,HEK 293 cells,> 100 µM
same,Activity on quiescent TG1 GSCs (hit compounds reducing ATP levels),quiescent TG1 GSCs [5],yes
"COc1ccc(C(c2ccc(O)cc2)c2ccccn2)cc1 (stereo not drawn) [Compound 5, 4-hydroxyphenyl-4-methoxyphenyl-(pyridin-2-yl)-methane]",EC50,proliferating TG1 GSCs [1]; [7],> 100 µM
same,EC50,quiescent TG1 GSCs [2]; [8],8 ± 6 µM
same,fold increase in EC50 (activity decrease) compared to DDPM (compound 2),quiescent TG1 GSCs [2],8 fold
4-hydroxyphenyl-4-trifluoromethylphenyl-2-pyrimidyl-methane [Compound 11],EC50,"proliferating TG1 GSCs [1]; SAR study, ATP-Glo cell survival assay, triplicate, read-out: Proliferating TG1 GSCs EC50",> 100 µM
same,EC50,"quiescent TG1 GSCs [2]; SAR study, ATP-Glo cell survival assay, triplicate, read-out: Quiescent TG1 GSCs EC50",12.4 ± 6.9 µM
"Oc1ccc(Cc2ccccn2)cc1 [Compound 8, 2-(4-Hydroxybenzyl)pyridine]",Proliferating TG1 GSCs EC50,proliferating TG1 GSCs [1]; [9],No activity
same,Quiescent TG1 GSCs EC50,quiescent TG1 GSCs [2]; [9],No activity
